Laboratory results reported in patent US11992497B2 (priority 2021, dated 2024).
Like-named read-outs stand apart in the source and are kept apart here.

How the values were obtained:
UGT1A9 = biological target: T1, UGT1A9 (Homo sapiens, UniProt O60656); assay: in vitro; conditions: pH 7.4; for half-life at 1 µM / microsomal CLint at 1 µM: recombinant enzyme
T1 sequence (O60656 26-530): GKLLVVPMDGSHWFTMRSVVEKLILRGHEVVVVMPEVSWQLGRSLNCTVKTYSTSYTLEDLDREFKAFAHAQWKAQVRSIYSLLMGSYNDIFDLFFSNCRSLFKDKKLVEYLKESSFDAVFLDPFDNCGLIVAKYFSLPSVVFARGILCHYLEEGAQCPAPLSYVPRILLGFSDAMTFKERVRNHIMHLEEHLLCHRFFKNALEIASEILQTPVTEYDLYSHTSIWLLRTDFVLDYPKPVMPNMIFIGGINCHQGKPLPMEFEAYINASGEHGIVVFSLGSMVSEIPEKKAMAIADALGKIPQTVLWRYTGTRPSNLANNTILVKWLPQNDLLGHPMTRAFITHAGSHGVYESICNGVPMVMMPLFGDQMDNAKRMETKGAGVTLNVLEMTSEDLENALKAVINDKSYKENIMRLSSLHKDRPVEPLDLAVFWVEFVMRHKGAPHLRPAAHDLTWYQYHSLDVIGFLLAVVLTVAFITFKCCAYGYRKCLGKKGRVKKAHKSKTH
Description: (§1) Experimental Summary: UGT Reaction Phenotyping (7 Isoforms).
(§2) Experimental Procedure: cDNA expressed human UGT enzyme preparations (Supersomes) supplied by BD Biosciences were obtained and stored at −80° C. prior to use. The specific isoforms were chosen by the performing laboratory based on published guidelines. They are considered the clinically relevant of the UGT isoforms (E. Kasteel et al. Human variability in isoform-specific UDP-glucuronosyltransferases: markers of acute and chronic exposure, polymorphisms and uncertainty factors. Arch Toxicol. 2020; 94(8): 2637-2661)
(§3) Supersomes in 0.1 M Tris buffer pH 7.4, alamethicin (44.6 μg/mL) and test compound (final concentration of 5 μM; final DMSO concentration ≤0.1%) were pre-incubated at 37° C. prior to the addition of UDGPA (final concentration 2 mM) to initiate the reaction. Incubations were also performed using control Supersomes (no UGT enzymes present) to reveal any non-enzymatic degradation. Compounds known to be metabolized specifically by each UGT isoform were used as control compounds (7-hydroxy-4-trifluoromethylcoumarin, all but UGT1A4, or trifluoperazine for UGT1A4).
(§4) CBG or Compound 1 were incubated in duplicate for 0, 10, 20, 40 and 60 min with each isoform. The reactions were stopped by the addition of methanol containing an analytical internal standard at the time points specified in the table above. Stopped reactions were kept on ice for at least ten minutes and the samples were centrifuged to remove precipitated protein. Supernatants were analyzed by LC-MS/MS methodology developed by the performing laboratory to quantitate the parent remaining.
(§5) The change in CBG concentration were used to calculate the Half life (t1/2 in min) and the intrinsic clearance ([…]) as shown in the following table (S. C, Khojasteh et.al., Drug Metabolism and Pharmacokinetics Quick Guide, Springer, NY, 2011), Intrinsic Clearance (CIint) is a measure of the ability of hepatocytes to eliminate drug irrespective other factors such as blood flow or protein binding. The calculations were the same as those used in Example 3A.

UGT2B7 = biological target: T2, UGT2B7 (Homo sapiens, UniProt P16662); assay: in vitro; conditions: for half-life at 1 µM / microsomal CLint at 1 µM: human, recombinant enzyme, pH 7.4
T2 sequence (P16662 24-529): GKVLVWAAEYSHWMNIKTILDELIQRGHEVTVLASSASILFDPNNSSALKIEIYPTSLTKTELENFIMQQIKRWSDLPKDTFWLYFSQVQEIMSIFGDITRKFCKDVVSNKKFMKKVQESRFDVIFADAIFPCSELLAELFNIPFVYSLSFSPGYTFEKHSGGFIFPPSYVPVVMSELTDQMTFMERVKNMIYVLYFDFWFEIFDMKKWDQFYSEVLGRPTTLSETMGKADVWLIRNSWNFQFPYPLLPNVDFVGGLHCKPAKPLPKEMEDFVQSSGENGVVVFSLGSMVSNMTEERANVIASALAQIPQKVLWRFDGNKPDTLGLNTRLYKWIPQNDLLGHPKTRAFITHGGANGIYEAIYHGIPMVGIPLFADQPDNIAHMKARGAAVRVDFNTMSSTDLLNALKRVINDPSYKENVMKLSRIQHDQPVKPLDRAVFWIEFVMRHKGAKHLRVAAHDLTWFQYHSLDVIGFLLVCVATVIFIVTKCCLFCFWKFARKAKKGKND
Description: as §1, §2, §3, §4, §5

HCT116 = assay: GI50 by MTS assay; format: cell-based; conditions: Homo sapiens, HCT-116
Description: (§6) For MTS assay, the compounds have been tested at 8 concentrations on 4 colon cancer cell lines for 48 hours. The compounds, concentrations and colon cancer cell line panel tested are the following: • CBG: 0 μM, 1.25 μM, 2.5 μM, 5 μM, 10 μM, 20 μM, 40 μM, and 80 μM. • Compound 1: 0 μM, 1.25 μM, 2.5 μM, 5 μM, 10 μM, 20 μM, 40 μM, and 80 μM. • Compound 2: 0 μM, 1.25 μM, 2.5 μM, 5 μM, 10 μM, 20 μM, 40 μM, and 80 μM. • Colon cancer cell line panel: SW620, HCT15, HT29, HCTl16
(§7) Four colon cancer cell lines of SW620, HCT15, HT29, and HCT116 were included in the colon cancer cell line panel.
(§8) CBG, compound 1 and compound 2 were dissolved in DMSO at a concentration of 10 mM and stored at −20° C.
(§9) Evaluation of DM compounds treatment-induced growth inhibition was performed to determine the GI50 of four colon cancer cell lines with MTS assay or clonogenic assay. Each experiment was repeated in triplicate. In GraphPad Prism, data were log-transformed and fit with a nonlinear curve to calculate the GI50.
(§10) MTS assay. cells were plated at 96 well plates at a density of 1,000 cells per well. After 24 hours, cells were treated with DM compounds at increasing concentrations or DMSO vehicle and incubated for 48 hours. 20 μl of MTS reagent (Promega) was then added and incubated for 2 hours. The absorbance was measured with a microplate reader at 490 nm. Each experiment was repeated in triplicate. In GraphPad Prism, data were log-transformed and fit with a nonlinear curve to calculate the GI50.

HCT15 = assay: GI50 by MTS assay; format: cell-based; conditions: Homo sapiens, HCT-15
Description: as §6, §7, §8, §9, §10

HT29 = assay: GI50 by MTS assay; format: cell-based; conditions: Homo sapiens, HT-29
Description: as §6, §7, §8, §9, §10

[1] = HCTl116 cells, 48 hours, read-out: GI50 (MTS assay)
[2] = MTS assay, HCT116, 48 hours, replicate N1, read-out: GI50 N1
[3] = MTS assay, HCT116, 48 hours, replicate N2, read-out: GI50 N2
[4] = MTS assay, HCT116, 48 hours, replicate N3, read-out: GI50 N3
[5] = HCT15 cells, 48 hours, read-out: GI50 (MTS assay)
[6] = MTS assay, HCT15, 48 hours, average of N1-N3, read-out: GI50 AVG
[7] = MTS assay, HCT15, 48 hours, replicate N1, read-out: GI50 N1
[8] = MTS assay, HCT15, 48 hours, replicate N2, read-out: GI50 N2
[9] = MTS assay, HCT15, 48 hours, replicate N3, read-out: GI50 N3
[10] = HT29 cells, 48 hours, read-out: GI50 (MTS assay)
[11] = MTS assay, HT29, 48 hours, replicate N1, read-out: GI50 N1
[12] = MTS assay, HT29, 48 hours, replicate N2, read-out: GI50 N2
[13] = MTS assay, HT29, 48 hours, replicate N3, read-out: GI50 N3
[14] = MTS assay, HT29, 48 hours, average of N1-N3, read-out: GI50 AVG

SMILES	half-life at 1 µM (UGT1A9) [min]	microsomal CLint at 1 µM (UGT1A9) [µL/min/mg]	half-life at 1 µM (UGT2B7) [min]	microsomal CLint at 1 µM (UGT2B7) [µL/min/mg]	GI50 (HCT116; [1]) [µM]	GI50 (HCT116; [2]) [µM]	GI50 (HCT116; [3]) [µM]	GI50 (HCT116; [4]) [µM]	GI50 (HCT15; [5]) [µM]	GI50 (HCT15; [6]) [µM]	GI50 (HCT15; [7]) [µM]	GI50 (HCT15; [8]) [µM]	GI50 (HCT15; [9]) [µM]	GI50 (HT29; [10]) [µM]	GI50 (HT29; [11]) [µM]	GI50 (HT29; [12]) [µM]	GI50 (HT29; [13]) [µM]	GI50 (HT29; [14]) [µM]	other results
O=c1cc(C(F)(F)F)c2ccc(O)cc2o1 [7-OH4trifluoromethylcoumarin, 7-hydroxy-4-trifluoromethylcoumarin]	3.04	456	50.4	27.5															
CCCCCc1cc(OC)c(C/C=C(\C)CCC=C(C)C)c(OC)c1 [Compound 2, (E)-2-(3,7-dimethylocta-2,6-dien-1-yl)-1,3-dimethoxy-5-pentylbenzene]					> 80	> 80	> 80	> 80	> 80	35.9	> 80	> 80	> 80	> 80	> 80	> 80	> 80		
CCCCCc1cc(O)c(C/C=C(\C)CCC=C(C)C)c(OC)c1 [Compound 1, (E)-2-(3,7-dimethylocta-2,6-dien-1-yl)-3-methoxy-5-pentylphenol]	14	99.1	24.8	55.9	10.3 ± 0.24				10 ± 0.52	10	10.1	9.46	10.5	10.2 ± 0.4	9.84	10.1	10.6	10.2	
CCCCCc1cc(O)c(C/C=C(\C)CCC=C(C)C)c(O)c1 [CBG, cannabigerol]	1.92	721	17.9	77.5	41.4 ± 1.87	40	44.1	40.2	43.6 ± 5.74	43.6	50.2	30.2	40.7	43.6 ± 4.02	42.6	48	40.1	43.6	share of UGT1A9 in the activity with CBG for all the UGTs combined (UGT1A9; 5 µM): ~80%; activity of UGT2B7 relative to UGT1A9 (UGT2B7; CBG as substrate): approximately 1/10; GI50 (HCT116; MTS assay, HCT116, 48 hours, average of N1-N3, read-out: GI50 AVG): 41.4 µM
